Measurements: PubChem BioAssay AID652090 (Broad Institute, 2013)

Assays:
Assay in all cases: cellular target proteins captured by immobilized compound – cell lysate, INS-1E, SILAC competition, mass spectrometry, mechanism study for beta-cell protection project, late-stage follow-up (AID 652090)
[1] = target: Lrpprc (UniProt Q5SGE0); conditions: INS-1E SILAC affinity pulldown, competition MS ratio, stronger effect = higher value
[2] = target: Cand2 (UniProt Q9R0L4); conditions: INS-1E SILAC affinity pulldown, competition MS ratio, stronger effect = higher value
[3] = target: Mcm6 (UniProt Q62724); conditions: INS-1E SILAC affinity pulldown, competition MS ratio, stronger effect = higher value
[4] = system: Lrpprc; conditions: INS-1E SILAC affinity pulldown, competition MS ratio, enrichment significance, stronger effect = lower value
[5] = system: LOC303448; conditions: INS-1E SILAC affinity pulldown, competition MS ratio
[6] = system: Ipo9; conditions: INS-1E SILAC affinity pulldown, competition MS ratio
[7] = target: Xpo1 (UniProt Q80U96); conditions: INS-1E SILAC affinity pulldown, competition MS ratio, stronger effect = higher value
[8] = system: Blvrb; conditions: INS-1E SILAC affinity pulldown, competition MS ratio
[9] = system: Ap3b2; conditions: INS-1E SILAC affinity pulldown, competition MS ratio
[10] = target: Timm44 (UniProt O35094); conditions: INS-1E SILAC affinity pulldown, competition MS ratio, stronger effect = higher value
[11] = system: Retsat; conditions: INS-1E SILAC affinity pulldown, competition MS ratio, enrichment significance, stronger effect = lower value
[12] = system: Xpo1; conditions: INS-1E SILAC affinity pulldown, competition MS ratio, enrichment significance, stronger effect = lower value
[13] = system: RGD1309903; conditions: INS-1E SILAC affinity pulldown, competition MS ratio
[14] = system: Usp9x; conditions: INS-1E SILAC affinity pulldown, competition MS ratio
[15] = system: Cand2; conditions: INS-1E SILAC affinity pulldown, competition MS ratio, enrichment significance, stronger effect = lower value
[16] = system: Mcm6; conditions: INS-1E SILAC affinity pulldown, competition MS ratio, enrichment significance, stronger effect = lower value
[17] = target: Retsat (UniProt Q8VHE9); conditions: INS-1E SILAC affinity pulldown, competition MS ratio, stronger effect = higher value
[18] = system: Ipo4; conditions: INS-1E SILAC affinity pulldown, competition MS ratio
[19] = target: Glyceraldehyde-3-phosphate dehydrogenase (Rattus norvegicus) (UniProt P04797); conditions: INS-1E SILAC affinity pulldown, competition MS ratio; Gapdh; stronger effect = higher value
[20] = target: Adenosylhomocysteinase (Rattus norvegicus) (UniProt P10760); conditions: INS-1E SILAC affinity pulldown, competition MS ratio; Ahcy; stronger effect = higher value
[21] = system: Gapdh; conditions: INS-1E SILAC affinity pulldown, competition MS ratio, enrichment significance, stronger effect = lower value
[22] = system: Ahcy; conditions: INS-1E SILAC affinity pulldown, competition MS ratio, enrichment significance, stronger effect = lower value
[23] = system: Timm44; conditions: INS-1E SILAC affinity pulldown, competition MS ratio, enrichment significance, stronger effect = lower value
[24] = system: Cand1; conditions: INS-1E SILAC affinity pulldown, competition MS ratio
[25] = system: Tbc1d15; conditions: INS-1E SILAC affinity pulldown, competition MS ratio
[26] = enrichment significance, stronger effect = lower value

Sequence of Retsat (UniProt Q8VHE9) (Q8VHE9 whole entry, looked up): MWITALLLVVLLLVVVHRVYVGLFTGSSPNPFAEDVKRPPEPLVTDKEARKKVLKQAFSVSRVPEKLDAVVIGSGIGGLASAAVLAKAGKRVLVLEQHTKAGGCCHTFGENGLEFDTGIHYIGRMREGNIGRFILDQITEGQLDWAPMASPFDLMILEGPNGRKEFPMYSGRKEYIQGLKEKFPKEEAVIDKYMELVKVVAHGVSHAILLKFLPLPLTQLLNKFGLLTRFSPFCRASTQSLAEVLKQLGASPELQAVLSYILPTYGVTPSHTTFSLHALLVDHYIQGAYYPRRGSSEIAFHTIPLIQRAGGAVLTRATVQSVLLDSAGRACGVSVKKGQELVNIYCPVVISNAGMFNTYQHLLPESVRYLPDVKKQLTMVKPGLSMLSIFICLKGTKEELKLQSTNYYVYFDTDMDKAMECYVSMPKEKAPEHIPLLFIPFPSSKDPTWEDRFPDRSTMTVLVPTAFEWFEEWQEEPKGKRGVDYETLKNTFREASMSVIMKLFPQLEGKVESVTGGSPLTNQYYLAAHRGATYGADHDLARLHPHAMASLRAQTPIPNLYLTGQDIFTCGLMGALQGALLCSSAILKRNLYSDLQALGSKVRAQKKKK
Sequence of Glyceraldehyde-3-phosphate dehydrogenase (Rattus norvegicus) (P04797 whole entry, looked up): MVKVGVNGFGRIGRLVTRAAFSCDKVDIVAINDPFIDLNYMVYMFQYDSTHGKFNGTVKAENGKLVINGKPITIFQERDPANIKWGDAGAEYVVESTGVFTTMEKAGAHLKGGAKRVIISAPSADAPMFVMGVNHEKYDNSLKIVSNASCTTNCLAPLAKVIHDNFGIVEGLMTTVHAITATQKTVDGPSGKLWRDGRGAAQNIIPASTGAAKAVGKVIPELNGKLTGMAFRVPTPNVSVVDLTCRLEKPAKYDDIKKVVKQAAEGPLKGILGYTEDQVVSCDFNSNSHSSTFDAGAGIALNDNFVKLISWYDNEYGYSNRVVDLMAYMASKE
Sequence of Xpo1 (UniProt Q80U96) (Q80U96 whole entry, looked up): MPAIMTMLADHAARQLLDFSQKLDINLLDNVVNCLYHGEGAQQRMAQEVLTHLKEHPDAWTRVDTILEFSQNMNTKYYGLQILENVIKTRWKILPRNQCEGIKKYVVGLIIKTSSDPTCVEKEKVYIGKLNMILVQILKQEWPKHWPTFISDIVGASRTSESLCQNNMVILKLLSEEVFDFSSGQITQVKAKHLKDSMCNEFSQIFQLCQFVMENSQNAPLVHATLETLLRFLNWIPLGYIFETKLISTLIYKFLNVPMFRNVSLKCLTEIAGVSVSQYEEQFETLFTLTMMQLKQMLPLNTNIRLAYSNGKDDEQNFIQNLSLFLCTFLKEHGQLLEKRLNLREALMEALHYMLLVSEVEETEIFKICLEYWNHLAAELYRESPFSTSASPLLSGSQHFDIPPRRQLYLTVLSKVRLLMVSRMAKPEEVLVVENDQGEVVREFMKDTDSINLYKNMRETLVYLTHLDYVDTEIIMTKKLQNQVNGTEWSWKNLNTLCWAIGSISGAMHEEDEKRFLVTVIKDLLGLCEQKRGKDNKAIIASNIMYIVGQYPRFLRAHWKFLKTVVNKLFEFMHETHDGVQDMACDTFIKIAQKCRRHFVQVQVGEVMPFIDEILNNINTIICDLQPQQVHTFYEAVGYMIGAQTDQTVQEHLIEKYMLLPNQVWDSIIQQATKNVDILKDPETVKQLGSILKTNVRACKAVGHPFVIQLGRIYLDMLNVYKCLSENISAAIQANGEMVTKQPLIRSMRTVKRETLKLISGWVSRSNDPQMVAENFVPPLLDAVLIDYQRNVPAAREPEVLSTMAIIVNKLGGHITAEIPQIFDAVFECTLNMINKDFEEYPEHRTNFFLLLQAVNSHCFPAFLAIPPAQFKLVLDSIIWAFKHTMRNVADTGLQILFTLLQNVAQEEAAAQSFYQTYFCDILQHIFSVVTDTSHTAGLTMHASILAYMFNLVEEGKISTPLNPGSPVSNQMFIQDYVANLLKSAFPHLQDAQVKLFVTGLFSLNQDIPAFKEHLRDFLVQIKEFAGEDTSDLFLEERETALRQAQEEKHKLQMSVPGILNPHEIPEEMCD
Sequence of Mcm6 (UniProt Q62724) (Q62724 whole entry, looked up): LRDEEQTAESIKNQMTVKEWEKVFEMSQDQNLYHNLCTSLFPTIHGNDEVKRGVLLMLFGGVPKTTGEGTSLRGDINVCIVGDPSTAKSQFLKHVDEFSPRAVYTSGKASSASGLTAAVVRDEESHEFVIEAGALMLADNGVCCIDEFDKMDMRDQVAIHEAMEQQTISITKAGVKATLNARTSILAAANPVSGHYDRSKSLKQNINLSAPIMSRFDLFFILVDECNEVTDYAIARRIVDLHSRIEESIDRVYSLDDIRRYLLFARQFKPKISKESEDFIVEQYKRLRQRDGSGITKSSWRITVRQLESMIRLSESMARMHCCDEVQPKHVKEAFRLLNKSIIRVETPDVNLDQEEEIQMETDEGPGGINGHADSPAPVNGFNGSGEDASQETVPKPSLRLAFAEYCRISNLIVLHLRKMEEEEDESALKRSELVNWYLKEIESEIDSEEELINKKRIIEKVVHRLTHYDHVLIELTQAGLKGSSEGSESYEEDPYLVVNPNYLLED
Sequence of Cand2 (UniProt Q9R0L4) (Q9R0L4 whole entry, looked up): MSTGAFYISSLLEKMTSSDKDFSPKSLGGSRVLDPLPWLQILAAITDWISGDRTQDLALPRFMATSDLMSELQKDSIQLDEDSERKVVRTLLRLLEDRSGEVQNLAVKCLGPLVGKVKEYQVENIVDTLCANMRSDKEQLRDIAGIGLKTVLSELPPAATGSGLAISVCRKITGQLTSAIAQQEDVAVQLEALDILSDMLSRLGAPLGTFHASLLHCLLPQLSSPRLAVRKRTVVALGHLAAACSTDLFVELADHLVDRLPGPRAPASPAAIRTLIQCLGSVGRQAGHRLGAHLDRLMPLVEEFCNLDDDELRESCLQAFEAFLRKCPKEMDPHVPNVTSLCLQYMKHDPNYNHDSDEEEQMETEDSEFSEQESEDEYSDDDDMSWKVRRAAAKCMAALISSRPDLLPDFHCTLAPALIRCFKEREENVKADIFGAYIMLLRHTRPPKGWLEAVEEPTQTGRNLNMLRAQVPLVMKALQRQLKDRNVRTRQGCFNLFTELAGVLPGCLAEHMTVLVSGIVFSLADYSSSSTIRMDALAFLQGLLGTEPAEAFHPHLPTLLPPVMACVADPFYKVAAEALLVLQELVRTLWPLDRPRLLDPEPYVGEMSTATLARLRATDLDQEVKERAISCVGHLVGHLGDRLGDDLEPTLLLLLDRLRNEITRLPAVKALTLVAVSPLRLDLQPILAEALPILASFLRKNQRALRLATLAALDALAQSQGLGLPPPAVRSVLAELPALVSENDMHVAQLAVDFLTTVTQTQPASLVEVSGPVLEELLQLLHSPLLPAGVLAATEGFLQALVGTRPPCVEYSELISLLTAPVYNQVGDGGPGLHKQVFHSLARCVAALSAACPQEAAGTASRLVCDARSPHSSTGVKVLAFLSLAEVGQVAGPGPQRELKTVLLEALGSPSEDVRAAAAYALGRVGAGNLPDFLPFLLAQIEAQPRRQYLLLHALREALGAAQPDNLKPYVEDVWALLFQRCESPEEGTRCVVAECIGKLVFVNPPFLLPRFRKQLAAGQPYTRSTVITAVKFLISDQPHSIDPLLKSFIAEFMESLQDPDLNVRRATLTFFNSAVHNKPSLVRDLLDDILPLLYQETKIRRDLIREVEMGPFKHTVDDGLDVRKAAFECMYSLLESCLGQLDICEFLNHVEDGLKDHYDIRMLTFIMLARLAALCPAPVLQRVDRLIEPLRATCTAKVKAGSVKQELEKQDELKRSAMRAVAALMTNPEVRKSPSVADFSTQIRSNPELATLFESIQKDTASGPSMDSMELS
Sequence of Timm44 (UniProt O35094) (O35094 whole entry, looked up): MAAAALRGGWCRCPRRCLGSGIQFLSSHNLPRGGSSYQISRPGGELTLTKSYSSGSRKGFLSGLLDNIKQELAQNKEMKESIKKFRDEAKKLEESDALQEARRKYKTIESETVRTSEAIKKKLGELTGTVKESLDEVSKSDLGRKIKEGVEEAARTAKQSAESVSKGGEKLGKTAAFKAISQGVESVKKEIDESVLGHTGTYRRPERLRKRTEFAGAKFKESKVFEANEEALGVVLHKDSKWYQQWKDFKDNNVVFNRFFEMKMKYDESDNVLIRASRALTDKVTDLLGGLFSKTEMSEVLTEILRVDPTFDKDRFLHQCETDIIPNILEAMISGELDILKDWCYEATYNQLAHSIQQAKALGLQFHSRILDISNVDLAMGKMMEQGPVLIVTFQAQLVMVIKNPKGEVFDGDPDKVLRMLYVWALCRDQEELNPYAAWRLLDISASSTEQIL
Sequence of Adenosylhomocysteinase (Rattus norvegicus) (P10760 whole entry, looked up): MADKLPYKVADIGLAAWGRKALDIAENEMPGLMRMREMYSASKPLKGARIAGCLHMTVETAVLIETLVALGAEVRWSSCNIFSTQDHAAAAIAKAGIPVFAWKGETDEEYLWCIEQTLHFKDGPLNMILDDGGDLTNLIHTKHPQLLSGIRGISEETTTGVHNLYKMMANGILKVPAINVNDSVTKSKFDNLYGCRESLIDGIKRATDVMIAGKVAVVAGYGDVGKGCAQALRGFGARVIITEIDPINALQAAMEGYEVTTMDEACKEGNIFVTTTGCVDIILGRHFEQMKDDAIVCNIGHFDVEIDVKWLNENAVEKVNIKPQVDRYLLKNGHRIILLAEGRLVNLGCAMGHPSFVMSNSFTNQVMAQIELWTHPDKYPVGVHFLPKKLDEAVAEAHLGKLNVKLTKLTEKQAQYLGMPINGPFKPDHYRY

In the case of `C[C@@H]1CN([C@@H](C)CO)C(=O)c2cccc(NC(=O)Nc3cccc4ccccc34)c2O[C@H]1CN(C)S(=O)(=O)c1ccc2c(c1)OCCO2`, the log2 SILAC competition ratio [1] was 0.64, the log2 SILAC competition ratio [2] was 0.496 and the log2 SILAC competition ratio [3] was 1.63. It also gave a p-value [4] of 0.00102, a p-value [5, 26] of 3.33e-05 and a log2 SILAC competition ratio ([5]; stronger effect = higher value) of 0.74. For the same compound, the p-value [6, 26] was 0.00514, the log2 SILAC competition ratio ([6]; stronger effect = higher value) was 0.58 and the log2 SILAC competition ratio [7] was 0.56. For the same compound, the p-value [8, 26] was 7.19e-23, the log2 SILAC competition ratio ([8]; stronger effect = higher value) was 1.52 and the p-value [9, 26] was 1.01e-06. The log2 SILAC competition ratio ([9]; stronger effect = higher value) was 0.84, the log2 SILAC competition ratio [10] was 0.52 and the p-value [11] was 0.00538. The p-value [12] was 0.0109, the p-value [13, 26] was 0.000418 and the log2 SILAC competition ratio ([13]; stronger effect = higher value) was 0.67. For the same compound, the p-value [14, 26] was 2.07e-09, the log2 SILAC competition ratio ([14]; stronger effect = higher value) was 0.98 and the p-value [15] was 0.0511. For the same compound, the p-value [16] was 2.29e-26, the log2 SILAC competition ratio [17] was 0.58 and the p-value [18, 26] was 0.000164. For the same compound, the log2 SILAC competition ratio ([18]; stronger effect = higher value) was 0.7, the log2 SILAC competition ratio [19] was 0.72 and the log2 SILAC competition ratio [20] was 0.72. The p-value [21] was 7.85e-05, the p-value [22] was 8.65e-05 and the p-value [23] was 0.0266. For the same compound, the p-value [24, 26] was 7.49e-06, the log2 SILAC competition ratio ([24]; stronger effect = higher value) was 0.78 and the p-value [25, 26] was 6.97e-05. It also gave a log2 SILAC competition ratio ([25]; stronger effect = higher value) of 0.72.
